Measurements published in patent US20250011272A1, “LONG-CHAIN COMPOUND THAT ACTS ON ACLY, PREPARATION METHOD THEREFOR AND USE THEREOF” (SHANGHAIINSTITUTE OF MATERIA MEDICA, CHINESE ACADEMY OF …, priority 2021, published 2025).
Like-named read-outs stand apart in the source and are kept apart here.

Legend:
[1] = target: Human ACLY (Homo sapiens (Human), UniProt P53396); assay: ACLY enzyme activity test (ADP-Glo luminescence); format: biochemical; conditions: 37° C., 30 minutes
Text: • Instrument: Envision (PerkinElmer, USA) • Materials: Acl—human ACLY/acly/ATP citrate lyase protein (His tag) was purchased from Sino Biological; kinase assay kit ADP-GLO (promega #V9102).
Experimental principle: In this experiment, the ATP-dependent citrate lyase ACL catalyzes the conversion of citrate to acetyl coenzyme A, which in turn produces malonyl coenzyme A, a precursor molecule for fatty acid synthesis, and this reaction is accompanied by ATP depletion, so the change in ATP can be detected using the ADP-Glo Kinase Assay (#V9102) to indirectly reflect the inhibitory effect of the compound on the enzymatic activity of ACL. This kinase detection kit can quantitatively determine the amount of ADP catalyzed by ACLY enzyme activity. (First, the compound, the enzyme and the substrate are incubated at 37 degrees for half an hour, ADP-Glo& #V9102; reagent is added and incubated for half an hour to terminate the reaction and consume the remaining ATP; then the kinase detection reagent is added (which converts the ADP to ATP while also detecting the newly synthesized ATP using the coupled […] reaction) and incubated for half an hour. The value is read by using Envision.
Experimental method: ADP Glo luminescence method was used for determination. It reflects the activity of ACLY enzyme by quantitatively detecting the amount of ADP, and the enzymatic reaction catalyzed by ACLY is proportional to the amount of ADP detected by the luminescent signal. Firstly, the compound is diluted with 10% DMSO, and then […] of compound dilution is added to a 5 μl reaction system, so that the final reaction system has a DMSO content of 2%. The enzymatic reaction catalyzed by ACLY was carried out at 37° C. for 30 minutes. 5 μl reaction mixture contained the following components: 40 mM Tris, pH 8.0, 10 mM MgCl2, 5 mM DTT, ATP, CoA, sodium citrate, and ACLY. After the enzymatic reaction was complete, 2.5 μl of ADP Glo reagent was added to each reaction system and incubated at room temperature for 1 hour. Afterwards, 5 μl of kinase detection reagent was added and incubated at room temperature for 30 minutes. The luminous signal was detected using Envision (PerkinElmer, USA).
Data processing: For compound, the activity dose dependent relationship was tested. IC50 value was obtained by non-linear fitting of sample concentration based on sample activity. The software used for calculation was Graphpad Prism 7, and the model used for fitting was sigmoid dose response (variable slope). For most inhibitor screening models, the bottom and top of the fitting curve were set to 0 and 100. In general, each sample is set with multiple wells (n≥2) during testing, which are represented in the results as Standard Deviation (SD) or Standard Error (SE).

[2] = test system: pancreatic cancer cell line ASPC-1; assay: MTS cell proliferation assay, ASPC-1; format: cell-based; conditions: ASPC-1, MTS, read-out: IC50, inhibition of proliferation, ASPC-1
Text: (§1) Experimental principle: CellTier 96 ® AQueous One Solution Cell Proliferation Assay (MTS) colorimetric method was used to detect cell proliferation. This analysis method is based on the tetrazole compound (3-(4,5-dimethylthiazol-2-yl)-5-(3-carboxymethoxyphenyl)-2-(4-sulfophenyl)-2H-tetrazolium, internal salt; MTS). The conversion of yellow MTS to blue purple water-soluble formazan is catalyzed by dehydrogenase, which exists in living cells with metabolic activity; Dead cells cannot complete the transformation from MTS to formamide. The amount of formazan determined by absorbance at 490 nm is directly proportional to the number of live cells in culture.
(§2) Sample processing: Dissolve the sample in DMSO and store it at low temperature.
(§3) Cell survival rate was detected by using MTS method, that is, adherent cells growing in logarithmic phase were digested with 0.025% trypsin, and counted; 80 μl cells were inoculated into a 96 well plate at a density of 3000 cells/well for A549 and 5000 cells/well for H358 (all cultured under 1% FBS conditions), and grown overnight in a 5% CO2 and 37° C. incubator. Each compound was diluted with a three-fold concentration gradient, eight concentrations were tested, and three wells were set for each concentration. 20 μl of the diluted compounds was added to the corresponding cell wells. Adherent cells A549 and H358 were cultured in a 5% CO2 and 37° C. incubator for 72 hours; 20 μl of MTS was added separately and incubated for 2 hours in a 5% CO2 and 37° C. incubator. Molecular Device VersaMax was used to test the light absorption value at 490 nm (L1), with a reference wavelength of 690 nm (L2). The (L1−L2) values were plotted against different concentrations of inhibitors and IC50 was obtained by fitting the formula.
(§4) The experimental results were fitted to the IC50 using Graphpad Prism 7. The model used for fitting was log(inhibitor) vs Response—variable slop, and the results of each assay were equipped with triple replicate wells to ensure the accuracy of the experiment. The results were expressed as Standard Deviation (SD) or Standard Error (SE).
(§5) Similarly, the antiproliferative assays of the compounds on pancreatic cancer cell line ASPC-1, human pancreatic cancer cell MIA-PACA and breast cancer cell MCF-7 were performed as above.

[3] = test system: NCI-H358 cells; assay: MTS cell proliferation assay, H358; format: cell-based, human; conditions: 1% FBS, read-out: IC50, inhibition of proliferation, H358
Text: (§6) Experimental materials: NCI-H358 cells (H358, human non-small cell lung cancer cells) were purchased from the cell bank/stem cell bank of the Chinese Academy of Sciences; RPMI-1640 culture medium (GIBCO, product number 3180002), and human tumor cell non-small cell lung cancer cell A549 were gifted by the research group of researcher Li Jia from SHANGHAI INSTITUTE OF MATERIA MEDICA, CHINESE ACADEMY OF SCIENCES. CellTier 96® The Aquarius One Solution Cell Promotion Assay (MTS) was purchased from Promega #G3581.
as §1, §2, §3, §4

[4] = test system: breast cancer cell MCF-7; assay: MTS cell proliferation assay, MCF-7; format: cell-based; conditions: MCF-7, MTS, read-out: IC50, inhibition of proliferation, MCF-7
Text: as §1, §2, §3, §4, §5

[5] = test system: human pancreatic cancer cell MIA-PACA; assay: MTS cell proliferation assay, MIA-PACA; format: cell-based
Text: as §1, §2, §3, §4, §5

[6] = test system: A549 cells; assay: MTS cell proliferation assay, A549; format: cell-based; conditions: Homo sapiens, A549, 72 hours, 1% FBS, read-out: IC50, inhibition of proliferation, A549
Text: as §6
Experimental principle: CellTier 96 ® AQueous One Solution Cell Proliferation Assay (MTS) colorimetric method was used to detect cell proliferation. […] The amount of formazan determined by absorbance at 490 nm is directly proportional to the number of live cells in culture. […]
Cell survival rate was detected by using MTS method, that is, adherent cells growing in logarithmic phase were digested with 0.025% trypsin, and counted; 80 μl cells were inoculated into a 96 well plate at a density of 3000 cells/well for A549 and 5000 cells/well for H358 (all cultured under 1% FBS conditions), and grown overnight in a 5% CO2 and 37° C. incubator. […]
The experimental results were fitted to the IC50 using Graphpad Prism 7. […] The results were expressed as Standard Deviation (SD) or Standard Error (SE).

[7] = Homo sapiens, NCI-H358, H358, 72 hours
[8] = Homo sapiens, MIA PaCa-2, read-out: IC50, inhibition of proliferation, MIA-PACA

Chain of Human ACLY (P53396 whole entry): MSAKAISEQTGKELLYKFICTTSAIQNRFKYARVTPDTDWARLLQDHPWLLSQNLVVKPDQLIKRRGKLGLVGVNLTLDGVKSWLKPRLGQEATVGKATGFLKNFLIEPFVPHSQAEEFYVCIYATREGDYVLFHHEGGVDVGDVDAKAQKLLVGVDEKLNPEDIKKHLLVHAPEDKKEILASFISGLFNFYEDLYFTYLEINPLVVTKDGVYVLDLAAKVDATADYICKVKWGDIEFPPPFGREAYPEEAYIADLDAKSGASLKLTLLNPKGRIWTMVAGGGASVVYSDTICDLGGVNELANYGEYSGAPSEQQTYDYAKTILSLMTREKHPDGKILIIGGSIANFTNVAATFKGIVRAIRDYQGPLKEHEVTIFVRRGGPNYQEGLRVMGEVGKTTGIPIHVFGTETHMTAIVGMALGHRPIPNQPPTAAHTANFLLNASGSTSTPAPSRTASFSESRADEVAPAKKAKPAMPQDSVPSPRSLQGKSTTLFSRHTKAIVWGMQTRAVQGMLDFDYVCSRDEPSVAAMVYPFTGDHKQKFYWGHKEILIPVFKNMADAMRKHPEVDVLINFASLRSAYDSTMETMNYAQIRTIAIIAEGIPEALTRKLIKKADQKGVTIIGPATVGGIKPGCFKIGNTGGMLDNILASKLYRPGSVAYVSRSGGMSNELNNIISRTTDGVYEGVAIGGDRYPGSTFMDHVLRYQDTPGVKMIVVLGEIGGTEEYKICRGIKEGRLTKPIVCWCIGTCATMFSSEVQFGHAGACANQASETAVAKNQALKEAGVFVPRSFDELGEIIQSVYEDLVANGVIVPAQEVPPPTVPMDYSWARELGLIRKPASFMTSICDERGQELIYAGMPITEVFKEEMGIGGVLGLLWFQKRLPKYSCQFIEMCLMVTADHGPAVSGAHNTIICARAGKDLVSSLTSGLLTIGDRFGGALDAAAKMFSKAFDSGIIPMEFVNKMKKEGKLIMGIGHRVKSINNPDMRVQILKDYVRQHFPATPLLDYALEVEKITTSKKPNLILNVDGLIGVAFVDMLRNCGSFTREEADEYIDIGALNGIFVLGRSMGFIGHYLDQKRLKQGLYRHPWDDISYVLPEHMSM

Row | Structure (SMILES) | IC50 [1] [µM] | other results
1 | C=CC(C)(CCCCCC/C=C\CCCCCCC(C)(C=C)C(=O)O)C(=O)O (centres unmarked) [Compound M7] | 4.1 ± 1.7 | 
2 | O=C(O)C1(CCCCCC/C=C\CCCCCCC2(C(=O)OCCc3ccccc3)C=CCC2)C=CCC1 (centres unmarked) [Compound M27] | 7.7 ± 0.39 | 
3 | O=C(O)C1(CCCCCC/C=C\CCCCCCC2(C(=O)OCCc3ccc(Cl)cc3)C=CCC2)C=CCC1 (centres unmarked) [Compound M30] | 19.9 ± 7.8 | 
4 | O=C(O)C1(CCCCC/C=C\CCCCCCC2(C(=O)O)C=CCC2)C=CCC1 (centres unmarked) [Compound M14] | 7 ± 0.16 | 
5 | Cc1ncsc1-c1ccc([C@H](C)NC(=O)[C@@H]2C[C@@H](O)CN2C(=O)[C@@H](NC(=O)C(C)(C)CCCCCC/C=C\CCCCCCC(C)(C)C(=O)O)C(C)(C)C)cc1 [Compound M34] | 10.2 ± 0.3 | 
6 | CC(C)(CCCCCC/C=C(/CCCCCCC(C)(C)C(=O)O)c1ccc(C(=O)N2CCN(c3ccccn3)CC2)cc1)C(=O)O [Compound M37] | 5.21 ± 0.27 | 
7 | CC(CCCC/C=C/CCCCCC(C)(C(=O)O)c1ccccc1)(C(=O)O)c1ccccc1 (centres unmarked) [Compound M15] | 52.2 ± 0.27 | 
8 | COc1ccc(CCOC(=O)C2(CCCCCC/C=C\CCCCCCC3(C(=O)O)C=CCC3)C=CCC2)cc1 (centres unmarked) [Compound M32] | 4.6 ± 1.3 | 
9 | O=C(O)C1(CCCCCC/C=C\CCCCCCC2(C(=O)OCCc3ccc4ccccc4c3)C=CCC2)C=CCC1 (centres unmarked) [Compound M29] | 5.8 ± 1.8 | IC50 ([2]; Homo sapiens, ASPC1): 28 ± 10.1 µM; IC50 [3, 7]: 9 ± 1.9 µM; IC50 ([4]; Homo sapiens, MCF7): 6.5 ± 0.4 µM; IC50 [5, 8]: 12.8 ± 1.6 µM
10 | COC(=O)c1cc(Cl)c(O)c(S(=O)(=O)Nc2cc(-c3ccccc3)c(F)cc2F)c1 [NDI-091143, reference compound] | 0.0021 ± 0.0004 | IC50 ([2]; Homo sapiens, ASPC1): 83.3 ± 34.7 µM; IC50 [3, 7]: 50.2 ± 27.7 µM; IC50 ([4]; Homo sapiens, MCF7): 84.8 ± 45.3 µM; IC50 [5, 8]: 40.9 ± 14.3 µM
11 | O=C(O)C1(CCCCCC/C=C\CCCCCCC2(C(=O)OCc3ccc(Cl)cc3Cl)C=CCC2)C=CCC1 (centres unmarked) [Compound M24] | 5.5 ± 1.9 | 
12 | CC(C)(CCCCCCC=C(CCCCCCC(C)(C)C(=O)O)c1ccc(C(=O)N2CCN(c3ccccn3)CC2)cc1)C(=O)O [Compound M36] | 4.57 ± 0.41 | 
13 | O=C(O)C1(CCCCCC/C=C\CCCCCCC2(C(=O)OCCc3ccc(F)cc3)C=CCC2)C=CCC1 (centres unmarked) [Compound M25] | 4 ± 0.86 | IC50 ([2]; Homo sapiens, ASPC1): 29.2 ± 11.4 µM; IC50 [3, 7]: 5.6 ± 0.5 µM; IC50 ([4]; Homo sapiens, MCF7): 5.7 ± 1.5 µM; IC50 [5, 8]: 11.9 ± 2.7 µM
14 | O=C(O)C1(CCCCCC/C=C\CCCCCCC2(C(=O)O)CCCC2)CCCC1 [Compound M4] | 22.6 ± 2.7 | 
15 | CC(CCCC/C=C\CCCCCC(C)(C(=O)O)c1ccccc1)(C(=O)O)c1ccccc1 (centres unmarked) [Compound M9] | 11.2 ± 1.61 | 
16 | O=C(O)C1(CCCCCC/C=C\CCCCCCC2(C(=O)OCCCc3ccc(Cl)cc3Cl)C=CCC2)C=CCC1 (centres unmarked) [Compound M28] | 17 ± 2.5 | 
17 | O=C(O)C1(CCCCCC/C=C\CCCCCCC2(C(=O)OCCc3ccccc3Cl)C=CCC2)C=CCC1 (centres unmarked) [Compound M31] | 8.5 ± 3.2 | 
18 | O=C(O)C1(CCCCCC/C=C\CCCCCCC2(C(=O)O)CC=CCC2)CC=CCC1 (centres unmarked) [Compound M6] | 5.3 ± 0.98 | 

More lines, in order of falling IC50 [1], values ahead:

Row | IC50 [1] [µM] | Structure (SMILES) | other results
19 | 3.9 ± 0.2 | O=C(O)C1(CCCCCC/C=C\CCCCCCCC2(C(=O)O)CC=CCC2)CC=CCC1 (centres unmarked) [Compound M12] | 
20 | 3.8 ± 0.83 | COC(=O)C1(CCCCCC/C=C\CCCCCCC2(C(=O)O)C=CCC2)C=CCC1 (centres unmarked) [Compound M21] | 
21 | 3.5 ± 1.7 | CCOC(=O)C1(CCCCCC/C=C\CCCCCCC2(C(=O)O)C=CCC2)C=CCC1 (centres unmarked) [Compound M20] | 
22 | 3.3 ± 0.72 | O=C(O)C1(CCCCCC/C=C\CCCCCCC2(C(=O)OCCc3ccccc3F)C=CCC2)C=CCC1 (centres unmarked) [Compound M23] | 
23 | 3.3 ± 0.45 | CC[C@H](C)n1cc(C)c2c(C(=O)NCc3c(C)cc(C)[nH]c3=O)cc(-c3ccc(N4CCN(C(=O)CCCSC(=O)C(C)(C)CCCCC/C=C\CCCCCC(C)(C)C(=O)O)CC4)nc3)cc21 [Compound M33] | 
24 | 3.1 ± 1.3 | O=C(O)C1(CCCCCCC=CCCCCCCC2(C(=O)OCCc3ccc(Cl)cc3Cl)C=CCC2)C=CCC1 (centres unmarked) [Compound M19] | IC50 [2]: 2.7 ± 1 µM; IC50 ([3]; H358, 72 hours): 3.5 ± 0.4 µM; IC50 [4]: 3.9 ± 0.5 µM; IC50 ([5]; read-out: IC50, inhibition of proliferation, MIA-PACA): 1.9 ± 0.5 µM
25 | 2.9 ± 0.95 | O=C(O)C1(CCCCCC/C=C\CCCCCCC2(C(=O)O)CC=CC2)CC=CC1 [Compound M2] | 
26 | 2.7 ± 0.8 | O=C(O)C1(CCCCCC/C=C\CCCCCCCC2(C(=O)O)C=CCC2)C=CCC1 (centres unmarked) [Compound M13] | 
27 | 1.9 ± 0.2 | C=CC(C)(CCCCCC/C=C\CCCCCCCC(C)(C=C)C(=O)O)C(=O)O (centres unmarked) [Compound M10] | 
28 | 1.9 ± 0.31 | CC(CCCCCC/C=C\CCCCCCCC(C)(C(=O)O)c1ccccc1)(C(=O)O)c1ccccc1 (centres unmarked) [Compound M11] | 
29 | 1.7 ± 0.3 | CC(CCCCCCC=CCCCCCCC(C)(C(=O)O)c1ccccc1)(C(=O)O)c1ccccc1 (centres unmarked) [Compound M1] | 
30 | 1.5 ± 0.45 | O=C(O)C1(CCCCCC/C=C\CCCCCCC2(C(=O)O)C=CCC2)C=CCC1 (centres unmarked) [Compound M5] | IC50 ([2]; Homo sapiens, ASPC1): 27.3 ± 0.8 µM; IC50 [3, 7]: 23.6 ± 1.9 µM; IC50 [6]: 12.5 ± 1.2 µM; IC50 ([4]; Homo sapiens, MCF7): 31.8 ± 1.7 µM; IC50 [5, 8]: 13.5 ± 18 µM
31 | 1 ± 0.13 | O=C(O)C1(CCCCCC/C=C\CCCCCCCC2(C(=O)O)CC=CC2)CC=CC1 [Compound M3] | 
32 | 0.9 ± 0.1 | O=C(O)C1(CCCCCCC(=C(CCCCCCC2(C(=O)O)C=CCC2)c2ccccc2)c2ccccc2)C=CCC1 (centres unmarked) [Compound M35] | 
